± gives the standard deviation of the averaged measurements.
Tests used:
U-2 OS [1] = experiment: intracellular GSH:GSSG ratio (calculated); higher = more reduced glutathione pool; conditions: 24 h
Description: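 Intracellular glutathione in U-2 OS cells after 24 h compound treatment at 5, 10 and 20 uM (some at 40 and 80 uM). Total glutathione and GSSG were measured with the GSH/GSSG-Glo kit, and the GSH:GSSG ratio was calculated. Mean of five technical replicate plates.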

U-2 OS [2] = experiment: cell viability (CellTiter-Glo) relative to DMSO (% of control); higher = more viable; conditions: 24 h
Description: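 Cell viability of U-2 OS cells by CellTiter-Glo after 24 h compound treatment at 5, 10 and 20 uM (some at 40 and 80 uM), measured in parallel with the glutathione assay, as percent of DMSO control. Five technical replicate plates, averaged.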

U-2 OS [3] = experiment: total intracellular glutathione (GSH + GSSG) relative to DMSO (% of control); higher = more glutathione; conditions: 24 h
Description: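 Total intracellular glutathione (GSH + GSSG) in U-2 OS cells by GSH/GSSG-Glo after 24 h compound treatment at 5, 10 and 20 uM (some at 40 and 80 uM), as percent of DMSO control. Five technical replicate plates, averaged.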

U-2 OS [4] = experiment: cell painting activity score (Mahalanobis distance from DMSO wells); higher = stronger morphological phenotype; conditions: 24 h
Summary of the method: (§1)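 In this cell painting assay, roughly 1,500 U-2 OS cells per well in 384-well plates were pin-tool treated at 37 °C for 24 h, typically at six 2-fold steps from 20 μM down to 625 nM. Cells were stained with MitoTracker, concanavalin A, phalloidin, wheat germ agglutinin, Hoechst and SYTO 14, imaged on an Opera Phenix, and analysed in CellProfiler with normalization to same-plate DMSO cells. Reported values are means of four replicate plates, with the activity score defined as the Mahalanobis distance from DMSO wells and cell count defined relative to DMSO wells.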

U-2 OS [5] = experiment: relative cell count vs DMSO (cell painting) (fraction of DMSO control); higher = more cells remaining (less cytotoxic); conditions: 24 h
Summary of the method: as §1

U-2 OS [6] = experiment: AUC of culture confluence over time (live-cell imaging) (AUC (confluence % x time)); higher = more confluent culture (less growth inhibition)
Summary of the method: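 Live-cell imaging tracked confluence of U-2 OS cells grown in F-12K medium plus 10% FBS. After seeding at 750 cells per well in 384-well plates, cells received compounds by pin tool 24 h later, mostly at 20, 10 and 5 μM, with 0.2% DMSO. Plates stayed at 37 °C and were imaged every 4 h for up to 60 h. Each value is the area under the confluence-versus-time curve.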

| Structure (SMILES) | intracellular GSH:GSSG ratio (U-2 OS [1]; 5 µM) | intracellular GSH:GSSG ratio (U-2 OS [1]; 10 µM) | intracellular GSH:GSSG ratio (U-2 OS [1]; 20 µM) | cell viability (U-2 OS [2]; 5 µM) | cell viability (U-2 OS [2]; 10 µM) | cell viability (U-2 OS [2]; 20 µM) | total intracellular glutathione (U-2 OS [3]; 5 µM) | total intracellular glutathione (U-2 OS [3]; 10 µM) | total intracellular glutathione (U-2 OS [3]; 20 µM) | cell painting activity score (U-2 OS [4]; 0.625 µM) | cell painting activity score (U-2 OS [4]; 1.25 µM) | cell painting activity score (U-2 OS [4]; 2.5 µM) | cell painting activity score (U-2 OS [4]; 5 µM) | cell painting activity score (U-2 OS [4]; 10 µM) | cell painting activity score (U-2 OS [4]; 20 µM) | relative cell count (U-2 OS [5]; 0.625 µM) | relative cell count (U-2 OS [5]; 1.25 µM) | relative cell count (U-2 OS [5]; 2.5 µM) | relative cell count (U-2 OS [5]; 5 µM) | relative cell count (U-2 OS [5]; 10 µM) | relative cell count (U-2 OS [5]; 20 µM) | AUC of culture confluence over time (U-2 OS [6]; 5 µM) | AUC of culture confluence over time (U-2 OS [6]; 10 µM) | AUC of culture confluence over time (U-2 OS [6]; 20 µM) | AUC of culture confluence over time (U-2 OS [6]; 0.625 µM) | AUC of culture confluence over time (U-2 OS [6]; 1.25 µM) | AUC of culture confluence over time (U-2 OS [6]; 2.5 µM) |
| --- | --- | --- | --- | --- | --- | --- | --- | --- | --- | --- | --- | --- | --- | --- | --- | --- | --- | --- | --- | --- | --- | --- | --- | --- | --- | --- | --- |
| Nc1nc(-c2ccccc2)[n+](-c2ccccc2)s1 | 25.1 | 18.2 | 2.7 | 106 ± 3.7 | 105 ± 6.1 | 16 ± 10 | 113 ± 5.1 | 117 ± 8.2 | 26.8 ± 7.4 | 7.03 | 3.42 | 2.65 | 3.42 | 3.28 | 9.72 | 1.06 | 1.11 | 1.04 | 1.13 | 1.08 | 0.605 | 39.6 | 44.4 | 43.3 | – | – | – |
| CCCC1(c2ccccc2)NC(=O)N(CC(=O)N(C)Cc2c(F)cccc2Cl)C1=O (centres undefined) | 20.7 | 26.8 | 22.5 | 101 ± 3.2 | 102 ± 2.8 | 100 ± 2.9 | 102 ± 4.9 | 104 ± 2.5 | 101 ± 3.9 | 4.41 | 4.87 | 5.72 | 6.63 | 7.72 | 8.18 | 1.02 | 0.978 | 1.04 | 1.03 | 0.991 | 1.04 | 53.9 | 48.4 | 48.7 | – | – | – |
| C=CC(=O)Nc1cccc(Oc2nc(Nc3ccc(N4CCN(C)CC4)cc3OC)ncc2Cl)c1 | 24.9 | – | – | 87.2 ± 3.6 | 76 ± 1.4 | 39.8 ± 1.5 | 110 ± 7.6 | 102 ± 5.2 | 108 ± 2 | 5.47 | 8.25 | 10.7 | 9.73 | 12.1 | 14.9 | 1.09 | 1 | 0.976 | 0.957 | 0.914 | 0.342 | 42.4 | 21.9 | 5.33 | – | – | – |
| COc1cc2c(c(OC)c1OC)-c1ccc(OC)c(=O)cc1[C@@H](NC(C)=O)CC2 | 3 | 2.46 | 2.47 | 49.1 ± 4 | 52.8 ± 6.9 | 57.8 ± 6.9 | 59.7 ± 3.7 | 58.1 ± 4.3 | 60.6 ± 3.2 | 22.4 ± 2.2 | 22 ± 1.8 | 20.7 ± 1.9 | 20.3 ± 2.4 | 21.3 ± 1.8 | 21 ± 1.7 | 0.215 ± 0.03 | 0.215 ± 0.021 | 0.213 ± 0.02 | 0.209 ± 0.021 | 0.205 ± 0.017 | 0.197 ± 0.018 | 20.1 | 19.7 | 22.8 ± 0.82 | 21.6 | 21.5 | 21 |
| c1ccc(Nc2nc(-c3ccccc3)ns2)cc1 | 23.1 | 14.2 | 15.3 | 98.7 ± 3 | 95.3 ± 1.7 | 97.7 ± 4 | 104 ± 6.9 | 96.4 ± 2.9 | 98.2 ± 2.9 | 4.12 | 4.49 | 4.32 | 5.01 | 9.5 | 11.4 | 0.915 | 0.89 | 0.908 | 0.925 | 0.958 | 0.841 | 49.5 | 46.8 | 49.1 | – | – | – |
| COC[C@H]1OC(=O)c2coc3c2[C@@]1(C)C1=C(C3=O)[C@@H]2CCC(=O)[C@@]2(C)C[C@H]1OC(C)=O | 26.3 | 27.5 | 21.8 | 83.6 ± 1.5 | 76 ± 2.8 | 69.3 ± 1.1 | 85.3 ± 3.2 | 82.6 ± 4 | 76.8 ± 3.8 | 7.82 ± 1.2 | 8.77 ± 1.2 | 8.96 ± 1.1 | 9.66 ± 1 | 10.4 ± 0.73 | 11.2 ± 0.66 | 0.905 ± 0.054 | 0.905 ± 0.038 | 0.882 ± 0.07 | 0.873 ± 0.059 | 0.837 ± 0.065 | 0.785 ± 0.058 | 49.5 | 38.5 | 28.4 | 57.9 | 56.1 | 56.6 |
| CNC(=O)Nc1ccc2c(c1)[C@@]1(CC2)OC(=O)N(CC(=O)N(Cc2ccc(F)cc2)[C@@H](C)C(F)(F)F)C1=O | 20.4 | 29.9 | 16.2 | 105 ± 7.5 | 98.6 ± 12 | 103 ± 9.4 | 100 ± 8.6 | 122 ± 7.3 | 90.4 ± 4 | 4.88 | 6.13 | 4.26 | 5.02 | 5.83 | 4.92 | 0.989 | 1.01 | 0.976 | 1.01 | 0.982 | 0.969 | 45.6 | 49.6 | 44.7 | – | – | – |
| CCOc1cc2ncc(C#N)c(Nc3ccc(OCc4ccccn4)c(Cl)c3)c2cc1NC(=O)/C=C/CN(C)C | 11.7 | 10.4 | 8.69 | 71.7 ± 4.9 | 71 ± 3.7 | 73.1 ± 7.3 | 58.3 ± 2.8 | 61.3 ± 2.5 | 59.5 ± 3.7 | 6.66 | 11.4 | 14.6 | 10.9 | 9.93 | 13.4 | 0.995 | 0.842 | 0.811 | 0.76 | 0.778 | 0.757 | 33.1 | 34.1 | 21.3 | – | – | – |
| Cc1onc(C(=O)N2CCN(C(c3ccc(Cl)cc3)c3ccc(Cl)cc3)CC2)c1[N+](=O)[O-] | 21 | 19.2 | 16.3 | 88.8 ± 4.4 | 92.4 ± 4.1 | 84.1 ± 6.2 | 107.3 ± 0.95 | 110 ± 4.7 | 107 ± 4.3 | 8.18 | 8.49 | 10.6 | 9.26 | 11.2 | 11.3 | 0.903 | 0.945 | 0.883 | 0.853 | 0.9 | 0.81 | 31.1 | 29.2 | 28.8 | – | – | – |
| C[C@@H]1CC[C@@]2(OC1)O[C@H]1[C@@H](O)[C@H]3[C@@H]4CC[C@H]5C[C@@H](O[C@@H]6O[C@H](CO)[C@H](O[C@@H]7O[C@H](CO)[C@@H](O)[C@H](O[C@@H]8OC[C@@H](O)[C@H](O)[C@H]8O)[C@H]7O[C@@H]7O[C@H](CO)[C@H](O)[C@H](O[C@@H]8O[C@H](CO)[C@@H](O)[C@H](O)[C@H]8O)[C@H]7O)[C@H](O)[C@H]6O)[C@H](O)C[C@]5(C)[C@H]4CC[C@]3(C)[C@H]1[C@@H]2C | 13.7 | 20.4 | 11.7 | 64.5 ± 5.7 | 36.8 ± 12 | 8.23 ± 3.5 | 76.2 ± 7.3 | 45.1 ± 18 | 21 ± 4.2 | 7.99 | 7.32 | 7.71 | 8.51 | 13.6 | 28.6 | 0.85 | 0.742 | 0.753 | 0.19 | 0.117 | 0.0498 | – | – | – | – | – | – |
| C=CC(=O)Nc1cccc(Nc2nc(Nc3ccc(Oc4ccnc(C(=O)NC)c4)cc3)ncc2F)c1 | 17.7 | 5.85 | 2.15 | 75.8 ± 3.4 | 59.5 ± 6.1 | 1.84 ± 1.1 | 64.2 ± 2 | 55.9 ± 4.7 | 5.78 ± 1.6 | 4.92 | 4.2 | 6.51 | 4.99 | 8.06 | 9.39 | 1 | 0.96 | 0.987 | 0.953 | 0.961 | 0.93 | – | – | – | – | – | – |
| COc1ccc(C[C@H](N)C(=O)N[C@H]2[C@@H](O)[C@H](n3cnc4c(N(C)C)ncnc43)O[C@@H]2CO)cc1 | 3.09 | 1.12 | – | 10.2 ± 1.6 | 2.46 ± 0.44 | 1.28 ± 0.26 | 12.5 ± 1.3 | 4.88 ± 0.7 | 4.55 ± 0.68 | 13.8 | 17.7 | 20.2 | 25.3 | 32.9 | 33.9 | 1.04 | 0.891 | 0.637 | 0.283 | 0.157 | 0.0622 | – | – | – | – | – | – |
| O=C1CC(Sc2nnnn2-c2ccccc2)C(=O)N1c1ccc([N+](=O)[O-])cc1 (centres undefined) | 26 | 17 | 7.14 | 102 ± 5.5 | 104 ± 5.8 | 46.2 ± 11 | 117 ± 6.5 | 122 ± 5.5 | 61.8 ± 13 | 4.41 | 4.65 | 4.9 | 6.88 | 12.5 | 18.1 | 1.06 | 1.07 | 1.12 | 1.01 | 0.828 | 0.677 | – | – | – | – | – | – |
| O=[N+]([O-])c1ccc(-c2nnc(SC3=CS(=O)(=O)c4ccccc43)o2)cc1 | 10.4 | 3.4 | 3.08 | 84.5 ± 5.8 | 33.5 ± 5.2 | 49.4 ± 2.6 | 119 ± 3.7 | 38.4 ± 3.2 | 46.6 ± 3.2 | 6.12 | 8.55 | 13.1 | 17.1 | 14.6 | 17.5 | 0.934 | 0.893 | 0.773 | 0.394 | 0.225 | 0.29 | – | – | – | – | – | – |

Reference: the supplement of paper PMC10011410
